We go through one substance from US20240207337A1, “MYCELIAL CULTURE OF Irpex lacteus AND COMPOSITION COMPRISING SAME AS ACTIVE INGREDIENT FOR PREVENTION AND TREATMENT OF DIABETES MEILLITUS” (LONGRUNN MEDICAL FOOD PTE. LTD., priority 2021, published 2024).

Holding throughout (type): in vivo
Data set [1] deals with db/db mice. Description: Oral glucose tolerance test (OGTT) in db/db mice. The following applies: G5: Diabex 400 mg/kg oral. On the procedure: (1) The OGTT measures the body's ability to use glucose.
(2) After 6 days of acclimatization, OGTT test animals were fasted for 16 hours before OGTT (water provided).
(3) Blood glucose was measured 30 minutes before administration of the test substance and once again 30 minutes later, that is, just before glucose administration.
(4) At 30, 60, 90, 120, and 240 min after administration of oral glucose at a dose of 2 g/10 mL/kg, blood was taken from tail veins and measured for glucose levels using a blood glucose meter (Accu-Check Performa).

The test system of data set [2] is db/db mice. Description: Blood glucose level after repeated oral administration for three weeks in db/db mice. The following applies: G5: Diabex 400 mg/kg/day oral. On the procedure: In this experiment, the test material lyophilizate of a mycelial culture of Irpex lacteus KACC 83046BP was orally administered to the db/db mice, which are an animal model of diabetes, for three weeks and examined for hypoglycemic effect. This test was conducted in the Local Food Institute of Gimcheon University.
For use in tests, sterile water for injection (excipient) was used as a negative control while Diabex tablet ([…], 500 mg) commercially available from Dai Han Pharm. Co., Ltd. (Kyeonggi-do) was used as a positive control. A test substance was divided into three groups: high-, medium-, and low-dose groups, which were prepared in suspension by adding the same amount of the test substance to different amounts of the sterile water for injection.
Blood glucose levels were measured once a week for three weeks during the experiment. In order to objectively measure blood glucose levels, all experimental animals were blocked from eating feed 6 hours before blood glucose measurement on the day of blood glucose measurement. Blood glucose levels were measured using a portable blood glucose meter (Accu-Check Performa/USA).

For data set [3], the system named is db/db mice. The data set can be described thus: Blood insulin and c-peptide measurement (ELISA) in db/db mice. The following applies: three weeks. The source says:
C-peptide is a substance that is secreted when proinsulin, a precursor of insulin, is degraded and released. The peptide, although lacking bioactivity, accounts for the secretion state of insulin. In addition, with a long half-life, C-peptide is used as an index to evaluate insulin secretion. The sera stored in separation were quantitatively assayed for insulin and c-peptide, using an ELISA kit (Shibayagi, AKRIN-011T and AKRCP-031).

Data set [4] deals with db/db mice. Description: Histopathological examination of pancreas (H&E) in db/db mice. The following applies: G5: Diabex 400 mg/kg/day oral, three weeks. On the procedure:
All the experimental animals were anesthetized by inhalation with CO2 and autopsied by laparotomy, and blood was collected from the posterior vena cava. After blood collection, the animals were killed by excision of the abdominal aorta and posterior vena cava and exsanguination. For histopathological examination, hematoxylin & eosin (H&E) staining was conducted to measure numbers and diameters of pancreatic islets and proportions of zymogen granules per unit area of exocrine pancreatic portions.

Data set [5] has as its system db/db mice. The data set can be described thus: Hemato-biochemical examination in db/db mice. The following applies: G5: Diabex 400 mg/kg/day oral, three weeks. As for the experimental part:
Of the blood collected for clinical pathology on the day of the end of the experiment, about 200 μL was used for analyzing glycated hemoglobin (HbA1c) while the remainder was left for 30 min or longer at room temperature in a vacutainer tube containing a clot activator and then centrifuged at 3000 rpm for 10 min. The serum obtained by centrifugation was transferred to a new tube and subjected to hemato-biochemical examination.
Using a hemato-biochemical analyzer, whole blood and sera which had been stored separately were subjected to hemato-biological examination for total cholesterol (TCHO), aspartate aminotransferase (AST), high-density lipoprotein (HDL), low-density lipoprotein (LDL), alanine aminotransferase (ALT), and glycated hemoglobin (HbA1c).

With metformin phosphate [Diabex], the “Blood glucose level (OGTT)” value in the data set with db/db mice [1] (0 min (just before glucose 2 g/kg)) was found to be 385 ± 33 mg/dL; with db/db mice [1] (30 min after glucose), 421 ± 29 mg/dL; in the data set with db/db mice [1] (60 min after glucose), 343 ± 12 mg/dL; with db/db mice [1] (90 min after glucose), 246 ± 26 mg/dL; in the data set with db/db mice [1] (120 min after glucose) it was 208 ± 11 mg/dL; in the data set with db/db mice [1] (240 min after glucose) it was 174 ± 22 mg/dL. In addition, the “Blood glucose level (OGTT)” value with db/db mice [1] (−30 min (before administration)) was found to be 265 ± 11 mg/dL. For the same substance, the Blood glucose level in the data set on db/db mice [2] (Day 1 (first day of administration)) stood at 365 ± 24 mg/dL; with db/db mice [2] (Week 1), 371 ± 12 mg/dL; with db/db mice [2] (Week 2), 452 ± 13 mg/dL; with db/db mice [2] (Week 3), 436 ± 11 mg/dL. In addition, the “Blood insulin compared to the negative control (G1)” value in the data set with db/db mice [3] (G5 (Diabex 400 mg/kg) oral) is reported as “significant decrease”. For the same substance, the “Blood C-peptide level” value in the data set with db/db mice [3] (G5: Diabex 400 mg/kg/day oral) was found to be 459.7 ± 82.3 pg/mL. In the data set with db/db mice [3] (G5: Diabex 400 mg/kg/day oral), this substance yielded a Blood insulin level of 1.96 ± 0.39 ng/mL. The substance also registered a Diameter of islet with db/db mice [4] of 126.25 ± 5.3 μm. In addition, the “No. of pancreatic Islets” value with db/db mice [4] is recorded as 6.25 ± 0.1 islets/cm^2. For the same substance, in the data set with db/db mice [4], the Zymogen granules was 41.39 ± 0.7 %/mm^2 of exocrine pancreas. For the same substance, in the data set on db/db mice [5], the ALT is reported as 72.1 ± 4.5 U/L. Besides, the AST in the data set on db/db mice [5] turned out to be 116.5 ± 4.6 U/L. The HDL with db/db mice [5] turned out to be 88.2 ± 4.2 mg/dL. In the data set with db/db mice [5], this substance yielded a HbA1c of 6.8 ± 0.2 %. In addition, the LDL in the data set on db/db mice [5] is on record as 25.9 ± 2.7 mg/dL. In the data set with db/db mice [5], this substance came in with a TCHO of 116.7 ± 3.2 mg/dL.
